The values that follow come from patent US20250179193A1, “TREATMENT WITH AN ANTIBODY THAT BINDS EGFR AND CMET” (MERUS N.V., priority 2022, published 2025).

Data set [1] concerns NSCLC CDX model HCC827-ER1 (EGFR exon 19 deletion E746-A750). The note with it: mouse, in vivo. As to the method:
Body weights were measured twice per week after randomization.

For a further data set, the system named is cMET than EGFR. The note with it: Moores et al. (2016); cited from earlier work.

With `C=CC(=O)Nc1cc(Nc2nccc(-c3cn(C)c4ccccc34)n2)c(OC)cc1N(C)CCN(C)C` [Osimertinib], in data set [1], the absolute body weight entry is “lower compared to Groups 1 and 2”.
As to “JNJ-61186372: bispecific cMET×EGFR antibody produced by controlled Fab-arm exchange (Moores et al 2016)”, the “affinity imbalance, greater affinity for cMET than EGFR” value in the data set on cMET than EGFR is reported as “approximately 40 ×”.
